This note sets out measurements from publication PMC5559490, “Synthesis of Saccharumoside-B analogue with potential of antiproliferative and pro-apoptotic activities” (Scientific Reports, 2017).

For experiment [1], the system named is Bcl-2. Briefly: Quantification of Bcl-2 (ELISA), HL-60. Type of experiment: cell-based, human. The settings on record: HL-60 cells; compared to untreated cells. As to the method: (§1) The intracellular content of Bcl-2 was quantified using the human Bcl-2 ELISA kit (Abcam, Cambridge, MA, USA). For the sample preparation, the cells were lysed with 1X lysis buffer. After 1 h of incubation at room temperature, the sample was spun at 1,000 g for 15 min and the supernatant was used for Bcl-2 measurement. Briefly, 80 μL of sample diluent and 20 μL of sample were added into the wells coated with monoclonal antibody to human Bcl-2, and after that the wells were washed twice with the wash buffer. Next, 50 μL of biotin-conjugate were added into the wells. After 2 h of incubation at room temperature on a microplate shaker, 100 μL of streptavidin-horseradish peroxidase were added. The sample was incubated again for 1 h at room temperature on a microplate shaker. The solution was withdrawn and the wells were washed with 3X wash buffer. Immediately, 100 μL of TMB substrate solution were added. Finally, 100 μL of stop solution were added into each well to stop the enzyme reaction. The absorbance was read using an ELISA reader at 450 and 620 nm wavelengths. Bcl-2 protein concentration was determined from the standard protein graphic using the optical densities of the samples[32].
A general note: ELISA stands for enzyme-linked immunosorbent assay.

In experiment [2] the test system is MCF-7 breast cancer cells. Nature of the experiment: MTT antiproliferative assay, MCF-7. The experiment is classed as cell-based. To be noted: Homo sapiens, MCF7; MTT assay; cancer cell line; mean of three independent experiments ± S.E.M.; read-out: IC50 MCF-7 Breast.
Experiment [3] deals with MIA PaCa-2 pancreatic cancer cells. Nature of the experiment: MTT antiproliferative assay, MIA PaCa-2. The experiment is classed as cell-based. To be noted: Homo sapiens, MIA PaCa-2; MTT assay; cancer cell line; mean of three independent experiments ± S.E.M.; read-out: IC50 MIA PaCa-2 Pancreatic.
The subject of the next experiment is HL-60 cells. Nature of the experiment: Cell cycle analysis (PI, flow cytometry), HL-60. To be noted: 24 h. The experiment is classed as cell-based, human. As to the method:
Cancer cells (1 × 10^6/ml) were treated with different concentrations of compound (5 and10 µM) for 24 h, fixed in cold 70% alcohol in PBS, washed, digested with DNase free RNase (400 µg/mL) at 37 °C for 45 min and stained with propidium iodide (10 µg/ml). Cells were analyzed for PI-DNA fluorescence by flow cytometerically using FACS CALIBUR (Becton Dickinson, Franklin Lakes, New Jersey, USA)[28]–[30]. The fluorescence intensity of subG0/GI cell fraction represents the dead cell population.
On the technique in general: A flow cytometer gives signals particle by particle.

Experiment [4] deals with caspase-9. Briefly: Caspase-9 colorimetric assay, HL-60. To be noted: HL-60 cells. The experiment is classed as cell-based, human. As for the experimental part:
(§2) Caspases-3, -8 and -9 assays were measured according to manufacturer’s instructions using a caspase colorimetric protease kit (Abcam, Cambridge, MA, USA). Cells were treated with compounds for 48 h. The cells were lysed by the addition of 50 μL of chilled cell lysis buffer and incubated on ice for 10 min. The resulting cell lysate was centrifuged for 1 min at 10,000 g, and the supernatant was collected. The cell lysate containing […] of protein was incubated with […] of 4 mmol/L pNA-conjugated substrates (DEVD-pNA, IETD-pNA and LEHD-pNA; substrates for caspase-3, -8 and -9, respectively) at 37 °C for 3 h. The amount of pNA released was measured at 405 nm using an ELISA microplate reader (Bio rad). The caspases activity was expressed as fold difference, [33].

Experiment [5] deals with MCF-10A mammary epithelial cells. Nature of the experiment: MTT assay on normal MCF-10A cells. The experiment is classed as cell-based. The settings on record: Homo sapiens, MTT assay, normal cells, 48 h, read-out: IC50 MCF-10A Breast (normal cell line).
For the next experiment, the system named is caspase-8. Briefly: Caspase-8 colorimetric assay, HL-60. Type of experiment: cell-based, human. The settings on record: HL-60 cells; data not showed. As for the experimental part:
as §2

In experiment [6] the test system is caspase-9. Briefly: Caspase-9 colorimetric assay, MCF-7. Type of experiment: cell-based, human. The settings on record: MCF-7 cells. As for the experimental part: as §2
Experiment [7] concerns MCF-7 breast cancer cells. Briefly: Quantification of apoptosis (Annexin V-PI), MCF-7. Type of experiment: cell-based, human. The settings on record: MCF-7 cells, 5 and 10 µM, 24 h. The source says:
(§3) Apoptotic population of cancer cells was quantified by Annexin V-propidium iodide (PI) staining technique (Abcam, Cambridge, MA, USA) using a flow cytometer as per published technique.

Experiment [8] concerns DU145 prostate cancer cells. Nature of the experiment: MTT antiproliferative assay, DU145. The settings on record: Homo sapiens, DU-145; MTT assay; cancer cell line; mean of three independent experiments ± S.E.M.; read-out: IC50 DU145 Prostate. Type of experiment: cell-based. Background: Formazan colour is commonly taken as a measure of viable cells.
Experiment [9] concerns Bcl-2. Briefly: Quantification of Bcl-2 (ELISA), MCF-7. The settings on record: MCF-7 cells; compared to untreated cells. The experiment is classed as cell-based, human. As for the experimental part: as §1
For another experiment, the system named is HL-60 leukemia cells. Nature of the experiment: MTT antiproliferative assay, HL-60. Type of experiment: cell-based, human.
Another experiment relates to Bax. Briefly: Quantification of Bax (immunometric assay), MCF-7. The experiment is classed as cell-based, human. To be noted: MCF-7 cells; compared to untreated cells. As for the experimental part:
Bax protein concentration determination was carried out using the Human Bax Enzyme Immunometric Assay kit (Assay Designs, Ann Arbor, MI, USA). The lysate (sample) preparation was carried out according to the manual. Following centrifugation (16,000 g for 15 min), the cells were resuspended in Modified Cell lysis buffer 4 [0.5 μL/mL of Sigma Protease Inhibitor Cocktail and 1 mM phenylmethylsulfonyl fluoride (PMSF)]. Cell lysate (100 μL) (sample) was added into the wells coated with monoclonal antibody to human Bax-α in triplicate. The plate was tapped gently to mix the contents. The sample was incubated at room temperature on a plate shaker for 1 h. The wells were emptied and washed with 5X wash buffer. After the final wash, the plate was tapped gently on a lint free paper towel to remove any remaining wash buffer. The sample was incubated again for 1 h at room temperature on a plate shaker after the addition of 100 μL of specific antibody (biotinylated monoclonal antibody to Bax-α) into each well. The wells were washed again with 5X wash buffer and emptied. Next, 100 μL of blue conjugate (streptavidin conjugated to horseradish peroxidase) was added into each well. […] The optical densities were read at 450 and 570 nm using an ELISA reader. Bax protein concentration was determined from the standard protein graphic using the optical densities of the samples[32].

For experiment [10], the system named is CaCo-2 colon cancer cells. Briefly: MTT antiproliferative assay, CaCo-2. To be noted: Homo sapiens, Caco-2; MTT assay; cancer cell line; mean of three independent experiments ± S.E.M.; read-out: IC50 CaCo-2 Colon. The experiment is classed as cell-based.
The subject of the next experiment is HL-60 cancer cells. Nature of the experiment: Quantification of apoptosis (Annexin V-PI), HL-60. The experiment is classed as cell-based, human. The settings on record: HL-60 cells.
Text: as §3

The test system of another experiment is caspase-3. Nature of the experiment: Caspase-3 colorimetric assay, HL-60. The experiment is classed as cell-based, human. To be noted: HL-60 cells. As to the method: as §2
Experiment [11] has as its system HeLa cervical cancer cells. Nature of the experiment: MTT antiproliferative assay, HeLa. The experiment is classed as cell-based. To be noted: Homo sapiens, MTT assay, cancer cell line, mean of three independent experiments ± S.E.M., read-out: IC50 HeLa Cervical.

Each structure is given as a SMILES string.

The term IC50 denotes the point on the concentration scale where inhibition reaches its midpoint. Consider `COc1cc(CO)ccc1OC1OC(COC(=O)c2ccc(F)cc2)C(O)C(O)C1O` (stereo not drawn) [Compound 9f, (6-(4-(hydroxymethyl)-2-methoxyphenoxy)-tetrahydro-3,4,5-trihydroxy-2H-pyran-2-yl)methyl 4-fluorobenzoate], for which the “effect on Bcl-2 levels” value in the experiment with Bcl-2 [1] and with Bcl-2 [9] was “dose dependent inhibition of Bcl-2” in each case. The IC50 in [2] is 6.13 ± 0.64 µM; in experiment [3] it was 12.9 ± 0.52 µM; in experiment [5], greater than 100 µM; in experiment [8], 10.8 ± 0.42 µM; in the experiment with HL-60 leukemia cells (Homo sapiens, HL-60, MTT assay, cancer cell line, mean of three independent experiments ± S.E.M., read-out: IC50 HL-60 Leukemia) it was 4.43 ± 0.35 µM; in experiment [10], 8.66 ± 0.72 µM. Also, in experiment [11], the half-inhibitory concentration (IC50) is 7.85 ± 0.57 µM. Also, the “effect on cell cycle distribution” value in the experiment on HL-60 cells is given as “cell cycle arrest at G0/G1 phase”. Further, the “effect on caspase-9 activity” value was “enhanced caspase-3 and -9 activities” with caspase-9 [4]; “enhanced caspase-3 and -9 activities” in the experiment on caspase-9 [6]. The “effect on caspase-8 activity” value in the experiment with caspase-8 is listed as “did not exhibit considerable effect”. The apoptotic cell population result is listed as “dose-dependent increase in the early apoptotic to late apoptotic population” in experiment [7] and “increase in the early apoptotic to late apoptotic cells in a dose-dependent fashion” with HL-60 cancer cells. For the same molecule, in the experiment with HL-60 leukemia cells (HL-60 cells, 24 h, versus camptothecin (positive control)), the “anti-proliferative effect at 24 h” value is “better antiproliferative effect than camptothecin”. The “effect on Bax protein levels” value with Bax is recorded as “dose dependently increased”. Also, in the experiment with caspase-3, the “effect on caspase-3 activity” value was “enhanced caspase-3 and -9 activities”.
